In US5298652A, “N-substituted glycines, inhibitors of phospholipase A2” (Hoffmann-La Roche Inc., priority 1992, dated 1994):
Each block holds one compound with its values, some of them ahead of it.

Tests used:
[1] = test system: croton oil-induced mouse ear edema; test: Croton oil mouse ear edema test; assay type: in vivo, male CD-1 mice; settings: 1 mg topical, coapplied with croton oil; ear punch weight at 6 hours
Description: Croton Oil Mouse Ear Edema Test
The croton oil-induced mouse ear edema test, a model of irritant-induced contact dermatitis, has been used for evaluation of the PLA2 inhibitors by the topical route of administration. This test was carried out as described in the following references: […]
Twenty five μl of a 1% croton oil solution [dissolved in a mixture of pyridine/water/diethyl ether at a ratio of 5/20/75 (croton oil vehicle)] are applied to the outer side of the right ear of 3-4 week old male CD-1 mice (8 animals per group). The test compounds are dissolved directly in the 1% croton oil solution at various concentrations and coapplied. Control animals receive 25 μl of croton oil vehicle on the right ear. Biopsy punches are removed at 6 hours from the right ear of the animals using a 6 mm skin trephine (Roboz, Washington, D.C.) and the wet weight of the ear punches is determined. The weight of the biopsy punches is a measure of ear inflammation, primarily edema. The data are expressed as percent inhibition relative to control groups.
Statistical analysis of the mean edema values of the control versus the treated groups is performed using Student's t-test. The significance of changes from mean value for vehicle-treated animals is as follows (*p<0.05, **p<0.01, ***p<0.005, ns/not significant).

[2] = biological target: T1, HSF-PLA2 (extracellular PLA2 obtained from human synovial fluid) (Homo sapiens, UniProt P14555); test: Assay for inhibition of HSF-PLA2 in vitro; assay type: biochemical; settings: read-out: % Inhib of HSF-PLA2; for inhibition at 5 µM: 5 μM test compound; for inhibition at 10 µM: 10 μM test compound
T1 construct: extracellular enzyme obtained from human synovial fluid; from tissue; host or cells: human synovial fluid (pooled)
T1 sequence (P14555 21-144): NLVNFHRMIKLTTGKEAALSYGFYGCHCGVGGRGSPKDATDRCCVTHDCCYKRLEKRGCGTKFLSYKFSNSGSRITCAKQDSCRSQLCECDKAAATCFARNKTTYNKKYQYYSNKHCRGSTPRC
Description: Assay for Inhibition of HSF-PLA2 In Vitro
The PLA2 used in this test is the extracellular enzyme obtained from human synovial fluid (HSF-PLA2).
The assay for HSF-PLA2 activity was a modification of the described method [Franson R., Dobrow R., Weiss, J., Elsbach P., and Weglick W. B., J. Lipid Res., 19, 18-23 (1978)] which was conducted using [1-^14 C]-oleate-labelled E. coli substrate in excess at a final concentration of 20,000 dpm/ml. This was equivalent to 18.2 mM of cell membrane phospholipid phosphorus and 2×10^9 autoclaved E. coli/ml. The optimal conditions which were developed for the assay of HSF-PLA2 inhibitors are summarized as follows. A total volume of 0.5 ml of reaction mixture typically had the following final composition: substrate (20,000 dpm/ml); enzyme (0.1% HSF, v/v); 2 mM CaCl2; 150 mM Na^+; 50 mM sodium HEPES buffer, pH 7.3; and 1% dimethyl sulfoxide (DMSO, used to solubilize test inhibitors) in the presence or absence of inhibitor. The reaction was initiated by the addition of HSF-PLA2 and duplicate samples of the mixture were incubated in 13×100 mm glass tubes with shaking for 30 minutes at 37° C. The reaction was terminated by the addition of 2.5 ml of chloroform-methanol (1 to 1.5, v/v). The extraction of lipids from the stopped reaction mixture was conducted by the further additions of 0.5 ml of chloroform and 1 ml of water with mixing. After centrifuging, the lower chloroform phase was transferred to smaller glass tubes and the solvent was evaporated to dryness with a nitrogen stream. The extracted lipid residue was redissolved in […] of a solution containing carrier oleic acid (0.2 mg/ml) in chloroform-methanol [9 to 1, v/v]). The whole lipid extract was applied to a preactivated (30 minutes at 110° C.) silica gel-impregnated glass fiber thin layer chromatography sheet (ITLC type SG sheet from Gelman Sciences Inc., Ann Arbor, Mich.) using hexane-acetic acid (100 to 1, v/v) as the developing solvent. This TLC system rapidly (6 minutes) resolved the enzymatically released product, ^14 C-oleic acid, from the unreacted ^14 C-phospholipid substrate. The unsaturated lipids were located on the chromatogram by a brief exposure to iodine vapor. The oleic acid zone (Rf value 0.95) and phospholipid zone (origin) were cut out, chopped into small pieces, shaken with 2 ml of ethanol-water (80 to 20, v/v) and 15 ml of Aquasol and counted for radio-activity. A control incubation of substrate in the absence of HSF-PLA2 was performed in each experiment. The PLA2 activity of the human synovial fluid was corrected for this small control value. […] The specific activity of PLA2 in the pooled human synovial fluid under the optimal assay conditions was 49.2 nmoles [1-^14 C]-oleic aid released hour^-1 mg^-1. The IC50 (μM concentration of test compound that produces 50% inhibition of PLA2 activity) was determined for each test compound.

[3] = test system: carrageenan-induced paw edema; test: Rat carrageenan paw edema; assay type: in vivo, Lewis rats; settings: for % Inhib of Carrageenan Paw Edema 2 hr 30 mg/kg ip: 1 hr prior to carrageenan
Description: Rat Carrageenan Paw Edema
Representative compounds of the invention were tested in rat carrageenan-induced paw edema to determine their ability to inhibit this acute inflammatory response. Test compounds were administered intraperitoneally or orally to groups of seven Lewis rats (~200 gm) 1 hr prior to carrageenan administration. The test compounds were dissolved in dimethyl sulfoxide for intraperitoneal administration and dissolved or suspended in Labrafil […] for oral administration. At 0 hour, 0.1 mL of 1% carrageenan dissolved in pyrogen free […] was injected subplanetary into the right hind paw to elicit the inflammatory response. The volume (in mL) of the right hind paw was measured by immersion of the paw to the level of the lateral malleolus in an aqueous plethysmometer immediately prior to the injection of carrageenan and then at 1, 2 and 4 hr after carrageenan injection. The paw edema was calculated by subtracting the zero time reading from the readings taken after injection. The percent change of the edema volume from the vehicle treated control was calculated to determine the activity of the test compound. Statistical analysis of the mean paw edema values of the control versus the treated groups was performed using Student's t-test.

[4] = test system: adjuvant arthritis induced by Freunds complete adjuvant; settings: dose 30 mg/kp ip
[5] = test system: TPA-induced mouse ear edema; test: TPA induced mouse ear edema test; assay type: in vivo, male CD-1 mice; settings: for % Inhib of TPA Mouse Ear Edema (1 mg) / % Inhib of Myeloperoxidase Mouse Ear Edema (1 mg): 1 mg topical
Description: TPA Induced Mouse Ear Edema Test
The TPA-induced mouse ear edema test, a model of irritant-induced contact dermatitis is described in the following reference: J. M. Young, B. M. Wagner and D. A. Spires, J. Invest. Dermatology 80, 48-52 (1983).
For this test, 10 μl of 12-O-tetradecanoylphorbol-13-acetate (TPA), dissolved in a vehicle of pyridine: water: diethylether (20:5:75), was applied to the outside of the right ear of 3-4 week old male CD-1 mice (8 animals per group). The test compounds were dissolved in the same vehicle and 10 μl was applied to the inside of the same ear 30 minutes prior to the application of TPA. Ear punches (6 mm) were removed at 6 hours after TPA application, weighed and assayed for myeloperoxidase (MPO) activity as described in the following reference: P. P. Bradley, D. A. Priebat, R. D. Christensen and G. Rothstein, J. Invest. Dermatology 78, 206-209 (1982). The wet weight of the ear biopsy punches is a measure of the ear edema and the level of MPO activity in the ear punches is an indicator of neutrophil infiltration. The data are expressed as percent inhibition in drug-treatedanimals relative to the control group. Table II sets forth the percentage inhibition of edema by representative compounds of the invention in this test. Table III sets forth the percentage inhibition of myeloperoxidase by representative compounds of the invention in this test.

[6] = 30 minutes prior to TPA, ear punch weight at 6 hours
[7] = MPO activity in ear punches 6 hours after TPA

SMILES: CCCCCCCCCCOc1cc(OCCCCCCCCCC)cc(C(=O)N(CC(=O)O)CC(=O)O)c1 [Example 11, N-(Carboxymethyl)-N-[3,5-bis(decyloxy)benzoyl]glycine]
% Inhib of Croton Oil Mouse Ear Edema (1 mg) [1]: 70%
inhibition at 6 µM ([2]; 6 μM test compound): 50%
% Inhib of Carrageenan Paw Edema 2 hr ([3]; 50 mg/kg): 50%

SMILES: CCCCCCCCCCCCCCCCCCOc1cc(OCCOCCOCCOCC)cc(C(=O)N(CC(=O)O)CC(=O)O)c1 [Example 48, N-(carboxymethyl)-N-[3-[2-[2-(2-ethoxyethoxy)ethoxy]ethoxy]-(5-octadecyloxy)benzoyl]glycine]
% Inhib of Croton Oil Mouse Ear Edema (1 mg) [1]: 19%
inhibition at 5 µM [2]: 36%
% Inhib of Carrageenan Paw Edema 2 hr 30 mg/kg ip [3]: 76%

SMILES: CCCCCCCCCCCCCC(=O)Nc1cc(NC(=O)CCCCCCCCCCCCC)cc(C(=O)N(CC(=O)O)CC(=O)O)c1 [Example 56, N-(Carboxymethyl)-N-[3,5-bis(1-oxotetradecylamino)benzoyl]glycine]
% Inhib of Carrageenan Paw Edema 2 hr ([3]; 100 mg/kg po): 26%

SMILES: CCCCCCCCCCCCCCCCCCOc1ccc(O)c(C(=O)N(CC(=O)O)CC(=O)O)c1 [Example 62, N-(carboxymethyl)-N-[2-hydroxy-5-(octadecyloxy)benzoyl]glycine]
% Inhib of Croton Oil Mouse Ear Edema (1 mg) [1]: 65%
Change in Paw Volume in ml, Treated [4]: -0.11 ± 0.06 mL
inhibition at 5.8 µM ([2]; 5.8 μM test compound): 50%
% Inhib of Carrageenan Paw Edema 2 hr 30 mg/kg ip [3]: 57%

SMILES: CCCCCCCCCCOc1cc(OCCCCCCCCCC)cc(C(=O)C(=O)N(CC(=O)O)CC(=O)O)c1 [Example 73, N-(Carboxymethyl)-N-[[3,5-bis(decyloxy)phenyl]-1,2-dioxoethyl]glycine]
inhibition at 5 µM [2]: 62%
% Inhib of Carrageenan Paw Edema 2 hr 30 mg/kg ip [3]: 56%

inhibition at 5 µM [2]: 42%
SMILES: CCCCCCCCCCCCCCCCCCOc1ccc(OCc2ccccc2)c(C(=O)N(CC(=O)O)CC(=O)O)c1 [Example 81, N-(Carboxymethyl)-N-[5-(octadecyloxy)-2-(phenylmethoxy)benzoyl]glycine]
% Inhib of Croton Oil Mouse Ear Edema (1 mg) [1]: 74%
% Inhib of TPA Mouse Ear Edema ([5]; 0.3 mg topical, 30 minutes prior to TPA, ear punch weight at 6 hours): 60%
% Inhib of Myeloperoxidase Mouse Ear Edema ([5]; 0.3 mg topical, MPO activity in ear punches 6 hours after TPA): 75%

inhibition at 10 µM [2]: 70%
SMILES: CCCCCCCCCCCCCCOc1ccc(OCc2ccccc2)c(C(=O)N(CC(=O)O)CC(=O)O)c1 [Example 86, N-(Carboxymethyl)-N-[5-(tetradecyloxy)-2-(phenylmethoxy)benzoyl]glycine]
% Inhib of TPA Mouse Ear Edema (1 mg) [5, 6]: 47%
% Inhib of Myeloperoxidase Mouse Ear Edema (1 mg) [5, 7]: 63%

inhibition at 10 µM [2]: 70%
SMILES: CCCCCCCCCCOc1ccc(OCc2ccccc2)c(C(=O)N(CC(=O)O)CC(=O)O)c1 [Example 91, N-(Carboxymethyl)-N-[5-(decyloxy)-2-(phenylmethoxy)benzoyl]glycine]
% Inhib of TPA Mouse Ear Edema (1 mg) [5, 6]: 59%
% Inhib of Myeloperoxidase Mouse Ear Edema (1 mg) [5, 7]: 78%

inhibition at 10 µM [2]: 71%
SMILES: CCCCCCCCCCCCCCCCCCOc1ccc(OCCCc2ccccc2)c(C(=O)N(CC(=O)O)CC(=O)O)c1 [Example 95, N-(Carboxymethyl)-N-[5-(octadecyloxy)-2-(3-phenylpropoxy)benzoyl]glycine]
% Inhib of TPA Mouse Ear Edema (1 mg) [5, 6]: 55%

inhibition at 10 µM [2]: 86%
SMILES: CCCCCCCCCCCCCCCCCCOc1ccc(OCCCOc2ccc(OCc3ccccc3)cc2)c(C(=O)N(CC(=O)O)CC(=O)O)c1 [Example 99, N-(Carboxymethyl)-N-[5-(octadecyloxy)-2-[3-[4-(phenylmethoxy)phenoxy]propoxy]benzoyl]glycine]
% Inhib of TPA Mouse Ear Edema (1 mg) [5, 6]: 50%

inhibition at 10 µM [2]: 77%
SMILES: CCCCCCCCCCCCCCCCCCOc1ccc(OCCCOc2ccc(O)cc2)c(C(=O)N(CC(=O)O)CC(=O)O)c1 [Example 100]
% Inhib of TPA Mouse Ear Edema (1 mg) [5, 6]: 65%

inhibition at 10 µM [2]: 38%
SMILES: O=C(O)CN(CC(=O)O)C(=O)c1cc(OCCCCCCOc2ccc(-c3ccccc3)cc2)ccc1OCc1ccccc1 [Example 105, N-[5-[[6-([1,1'-biphenyl]-4-yloxy)hexyl]oxy]-2-(phenylmethoxy)benzoyl]-N-(carboxymethyl)glycine]
% Inhib of TPA Mouse Ear Edema (1 mg) [5, 6]: 67%

inhibition at 10 µM [2]: 61%
SMILES: O=C(O)CN(CC(=O)O)C(=O)c1cc(OCCCCCCCCCCCCOc2ccccc2)ccc1OCc1ccccc1 [Example 110, N-(Carboxymethyl)-N-[5-[(12-phenoxydodecyl)oxy]-2-(phenylmethoxy)benzoyl]glycine]
% Inhib of TPA Mouse Ear Edema (1 mg) [5, 6]: 57%

inhibition at 10 µM [2]: 35%
SMILES: O=C(O)CN(CC(=O)O)C(=O)C(=O)c1ccc(OCCCCCCCCCCCCOc2ccccc2)cc1 [Example 114, N-(Carboxymethyl)-N-[1,2-dioxo-2-[4-[(12-phenoxydodecyl)oxy]phenyl]ethyl]glycine]
% Inhib of TPA Mouse Ear Edema (1 mg) [5, 6]: 37%
